Consider 9 molecules from patent US9181244B1, “Substituted pyrido[2,3-c]pyridazin-4(1H)-ones as tumor necrosis factor alpha and phosphodiesterase 4 inhibitors” (Xuanzhu Pharma Co., Ltd., priority 2014, dated 2015).

For assay [1], the target named is PDE-4D3 (Homo sapiens, UniProt Q08499). Briefly: Lance cAMP assay, PDE-4D3 inhibition. The format is biochemical. The following applies: PDE4D3 0.024 nM, 20 nM cAMP, 90 min room temperature. Here is the method: (§1) Experimental Methods: Lance cAMP Assay:
(§2) Test samples were precisely weighed, added to and dissolved in DMSO, mixed sufficiently so as to reach 100 μM. The above mother solution was then diluted with DMSO to reach 1 μM, and then diluted 4 times to reach 0.0038 nM.
(§3) To 384 well plate were added 2.5 μl of substrate 20 nM cAMP and 50 nl of compound DMSO solution, then added 2.5 μl of PDE enzyme (PDE4B1 0.18 nM, PDE4D3 0.024 nM) buffer solution (1×HBSS, 5 mM Hepes pH 7.4, 3 mM MgCl2, 0.1% BSA). After incubation at room temperature for 90 min, 5 μl of Alexa Fluor® 647-anti cAMP antibody was added and incubated for 30 min, 10 μl of detection reagent was added and incubated for 60 min, then its LANCE signal was detected under 665 nm, inhibition rate was calculated by the following formulation, and IC50 values were calculated from inhibition rate using XLfit. Inhibition rate=[signal value (MAX)−signl value (sample)]×100/[signal value (MAX)−signal value (MIN)]
(§4) Notation: MAX: blank control without enzyme; MIN: blank control without compound.

Assay [2] deals with PDE-4B1 (Homo sapiens, UniProt Q07343). In words: Lance cAMP assay, PDE-4B1 inhibition. Type of assay: biochemical. As to conditions: PDE4B1 0.18 nM, 20 nM cAMP, 90 min room temperature. The procedure: as §1, §2, §3, §4
Assay [3] concerns PDE4D, PDE4B. As to conditions: some studies have shown; cited from earlier work.
The test system of assay [4] is TNF-α. Briefly: Inhibition activity of TNF-α in whole blood test (LPS-stimulated, ELISA). The format is cell-based. As to conditions: human whole blood diluted 1:1 with DPBS, lipopolysaccharide 100 ng/ml, overnight. Here is the method:
Experiment 2: Measurement of Inhibition Activity of TNF-α in Whole Blood Test
Fresh blood was collected from health human body using heparin sodium tubes. In Grade II Bio-safety Cabinet, whole blood was diluted in the ratio of 1:1 with DPBS (Dulbecco's Phosphate Buffered Saline). 100 μl of the diluted blood samples were taken and added to each of wells of a 96-well plate. 0.5 μl of compound solution was added to each well. The compound was formulated with dimethyl sulfoxide. The 96-well plate was placed in CO2 incubator and incubated for 30 min, then lipopolysaccharide in final concentration of 100 ng/ml was added, and incubated overnight. The 96-well plate was shaked for homogenization, and from each well 10 μl of solution was taken and transferred to another 96-well plate for ELISA to measure TNF-α content. The following formula was used to calculate inhibition rate, and the inhibition rate was used for calculation of IC50 value with XLfit. Inhibition rate=[signal value (MAX)−signal value (sample)]×100/[signal value (MAX)−signal value (MIN)]
Notation: MAX represents blank control stimulated with only lipopolysaccharide; MIN represents positive control with 1 μmol/l of dexamethasone.

Chain of PDE-4D3 (Q08499 1-673 isoform Q08499-2): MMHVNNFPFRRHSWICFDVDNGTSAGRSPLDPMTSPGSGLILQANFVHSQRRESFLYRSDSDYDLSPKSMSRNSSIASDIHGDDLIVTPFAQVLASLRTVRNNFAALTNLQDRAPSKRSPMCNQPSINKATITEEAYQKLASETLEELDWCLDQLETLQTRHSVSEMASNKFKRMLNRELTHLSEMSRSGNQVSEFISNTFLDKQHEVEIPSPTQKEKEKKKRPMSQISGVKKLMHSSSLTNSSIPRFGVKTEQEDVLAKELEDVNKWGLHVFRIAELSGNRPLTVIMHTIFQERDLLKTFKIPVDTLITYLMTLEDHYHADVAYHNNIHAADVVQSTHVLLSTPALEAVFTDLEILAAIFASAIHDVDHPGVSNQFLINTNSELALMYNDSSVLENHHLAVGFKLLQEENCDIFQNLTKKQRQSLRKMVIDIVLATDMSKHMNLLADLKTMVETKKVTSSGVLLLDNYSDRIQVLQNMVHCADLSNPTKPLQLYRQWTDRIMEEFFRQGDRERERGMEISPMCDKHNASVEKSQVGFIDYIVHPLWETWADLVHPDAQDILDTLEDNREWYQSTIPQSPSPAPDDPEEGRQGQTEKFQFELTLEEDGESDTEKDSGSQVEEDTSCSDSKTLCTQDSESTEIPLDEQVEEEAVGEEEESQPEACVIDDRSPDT
Chain of PDE-4B1 (Q07343 whole entry, species assumed): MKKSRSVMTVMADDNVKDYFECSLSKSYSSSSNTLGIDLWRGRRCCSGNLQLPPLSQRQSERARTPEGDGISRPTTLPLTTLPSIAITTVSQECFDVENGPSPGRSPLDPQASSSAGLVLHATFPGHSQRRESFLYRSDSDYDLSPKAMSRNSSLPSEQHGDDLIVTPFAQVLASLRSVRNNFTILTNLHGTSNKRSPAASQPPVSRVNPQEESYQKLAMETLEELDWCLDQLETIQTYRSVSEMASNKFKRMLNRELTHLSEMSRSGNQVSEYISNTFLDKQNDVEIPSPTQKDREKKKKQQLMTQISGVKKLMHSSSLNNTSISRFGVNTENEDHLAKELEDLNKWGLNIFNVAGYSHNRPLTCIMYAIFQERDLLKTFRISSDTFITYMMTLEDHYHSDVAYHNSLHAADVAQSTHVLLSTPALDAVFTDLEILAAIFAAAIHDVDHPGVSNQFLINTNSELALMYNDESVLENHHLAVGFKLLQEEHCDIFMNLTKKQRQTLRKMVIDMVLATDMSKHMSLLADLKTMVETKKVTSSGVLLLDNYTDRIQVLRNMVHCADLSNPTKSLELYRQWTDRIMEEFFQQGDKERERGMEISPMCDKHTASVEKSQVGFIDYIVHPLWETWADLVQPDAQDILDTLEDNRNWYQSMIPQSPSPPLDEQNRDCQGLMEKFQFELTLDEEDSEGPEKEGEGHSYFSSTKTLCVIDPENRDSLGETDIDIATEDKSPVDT

Take `O=C(NC1CC1)c1nn(-c2cccc(Oc3cccnc3)c2)c2ncccc2c1=O` [Compound 3, N-cyclopropyl-4-oxo-1-(3-(pyridin-3-yloxy)phenyl)-1,4-dihydropyridino[2,3-c]pyridazine-3-carboxamide]: the IC50 in assay [1] came to 358 nM; in assay [2] it was 305 nM.

As for Roflumilast, the “activity to PDE4D compared with activity to PDE4B” value in assay [3] was “equivalent activity”.

`O=C(NC1CC1)c1nn(-c2cccc(C#Cc3ccc[n+]([O-])c3)c2)c2ncccc2c1=O` [Nitrogen oxide of Compound 1, 3-[[3-[3-(cyclopropylcarbamoyl)-4-oxo-pyridino[2,3-c]pyridazine-1(4H)-yl]phenyl]ethynyl]pyridine-1-oxide]: the IC50 in assay [4] came to 109 nM; in assay [1], 18.9 nM; in assay [2], 28.1 nM.

In the case of Cilomilast, the “activity to PDE4D compared with activity to PDE4B” value in assay [3] is recorded as 10 time.

As for `O=C(NC1CC1)c1nn(-c2cccc(Sc3cccnc3)c2)c2ncccc2c1=O` [Compound 2, N-cyclopropyl-4-oxo-1-[3-(pyridin-3-ylthio)phenyl]-1,4-dihydropyridino[2,3-c]pyridazine-3-carboxamide], the half-inhibitory concentration (IC50) in assay [1] is 250 nM; in assay [2], 161 nM.

As for `O=C(NC1CC1)c1nn(-c2cccc(Oc3ccc[n+]([O-])c3)c2)c2ncccc2c1=O` [Nitrogen oxide of Compound 3], the concentration for half-maximal inhibition (IC50) was 643 nM in assay [1] and 526 nM in assay [2].

`O=C(NC1CC1)c1nn(-c2cccc(C#Cc3cccnc3)c2)c2ncccc2c1=O` [Compound 1, N-cyclopropyl-4-oxo-1-[3-(pyridin-3-ylethynyl)phenyl]-1,4-dihydropyridino[2,3-c]pyridazine-3-formamide]: the IC50 in assay [4] worked out at 51 nM; in assay [1] it was 2.19 nM; in assay [2] it was 2.68 nM.

With `O=C(NC1CC1)c1cn(-c2cccc(C#Cc3ccc[n+]([O-])c3)c2)c2ncccc2c1=O` [MK-0873, reference compound], the IC50 in assay [4] was 40.3 nM; in assay [1], 4.58 nM; in assay [2] it was 5.59 nM.

For `C[C@@H]1C[C@H]2[C@@H]3CCC4=CC(=O)C=C[C@]4(C)[C@@]3(F)[C@@H](O)C[C@]2(C)[C@@]1(O)C(=O)CO` [Dexamethasone, reference compound], the IC50 in assay [4] was 3.3 nM.
